Experimental data as given in the CheMixHub viscosity set.

Experiment: xn = mol fraction of the nth substance listed

OCC1CC1 + CC(C)CC(C)(C)C
viscosity [mPa·s], 101 kPa
Details | x1 = 0.0991 | x1 = 0.1991 | x1 = 0.3007 | x1 = 0.4013 | x1 = 0.5 | x1 = 0.6004 | x1 = 0.7007 | x1 = 0.8004 | x1 = 0.9002
293.15 K | 0.535 | 0.592 | 0.676 | 0.801 | 0.97 | 1.214 | 1.561 | 2.068 | 2.803
298.15 K | 0.505 | 0.556 | 0.63 | 0.74 | 0.886 | 1.098 | 1.398 | 1.831 | 2.459
303.15 K | 0.476 | 0.522 | 0.587 | 0.684 | 0.811 | 0.997 | 1.257 | 1.632 | 2.168
308.15 K | 0.45 | 0.491 | 0.549 | 0.634 | 0.746 | 0.908 | 1.136 | 1.46 | 1.921
313.15 K | 0.425 | 0.462 | 0.514 | 0.59 | 0.688 | 0.831 | 1.029 | 1.31 | 1.709
318.15 K | 0.396 | 0.431 | 0.478 | 0.546 | 0.633 | 0.759 | 0.934 | 1.181 | 1.527
323.15 K | 0.38 | 0.411 | 0.454 | 0.514 | 0.59 | 0.701 | 0.854 | 1.071 | 1.372

C[N+](=O)[O-] + CC(C)CO
298.15 K, 101 kPa
Details | viscosity [mPa·s]
x1 = 0.1592 | 2.304
x1 = 0.2992 | 1.779
x1 = 0.4225 | 1.382
x1 = 0.5327 | 1.108
x1 = 0.6306 | 0.9667
x1 = 0.7193 | 0.822
x1 = 0.7993 | 0.7537
x1 = 0.8724 | 0.7066
x1 = 0.9387 | 0.6682

ClC1CCCCC1 + CC(C)CO
viscosity [mPa·s], 101.33 kPa
Details | x1 = 0.1018 | x1 = 0.2015 | x1 = 0.3066 | x1 = 0.4073 | x1 = 0.5034 | x1 = 0.5996 | x1 = 0.7053 | x1 = 0.8003 | x1 = 0.8949
298.15 K | 2.771 | 2.342 | 2.035 | 1.835 | 1.687 | 1.597 | 1.525 | 1.5 | 1.5
313.15 K | 1.784 | 1.555 | 1.393 | 1.284 | 1.223 | 1.181 | 1.146 | 1.132 | 1.144

Brc1ccc(Br)cc1 + CC(C)O
viscosity [mPa·s], 101 kPa
Details | 298.15 K | 303.15 K | 308.15 K | 313.15 K | 318.15 K
x1 = 0.02851 | 1.945 | 1.682 | 1.476 | 1.307 | 1.16
x1 = 0.04384 | – | 1.663 | 1.47 | 1.291 | 1.142

C[N+](=O)[O-] + CC(C)O
viscosity [mPa·s]
Details | 293.15 K | 298.15 K | 303.15 K | 313.15 K
101 kPa, x1 = 0.1361 | – | 1.599 | – | –
101 kPa, x1 = 0.2622 | – | 1.267 | – | –
101 kPa, x1 = 0.3785 | – | 1.025 | – | –
101 kPa, x1 = 0.4866 | – | 0.8807 | – | –
101 kPa, x1 = 0.5871 | – | 0.7784 | – | –
101 kPa, x1 = 0.6805 | – | 0.7133 | – | –
101 kPa, x1 = 0.7685 | – | 0.6771 | – | –
101 kPa, x1 = 0.8503 | – | 0.6562 | – | –
101 kPa, x1 = 0.9277 | – | 0.6386 | – | –
101.33 kPa, x2 = 0.0502 | 0.629 | – | 0.561 | 0.504
101.33 kPa, x2 = 0.1001 | 0.624 | – | 0.552 | 0.494
101.33 kPa, x2 = 0.1501 | 0.623 | – | 0.55 | 0.49
101.33 kPa, x2 = 0.2003 | 0.633 | – | 0.554 | 0.491
101.33 kPa, x2 = 0.25 | 0.649 | – | 0.564 | 0.496
101.33 kPa, x2 = 0.3 | 0.672 | – | 0.579 | 0.507
101.33 kPa, x2 = 0.35 | 0.701 | – | 0.597 | 0.518
101.33 kPa, x2 = 0.4001 | 0.731 | – | 0.616 | 0.535
101.33 kPa, x2 = 0.4501 | 0.772 | – | 0.647 | 0.552
101.33 kPa, x2 = 0.5 | 0.817 | – | 0.679 | 0.574
101.33 kPa, x2 = 0.55 | 0.868 | – | 0.716 | 0.601
101.33 kPa, x2 = 0.6 | 0.927 | – | 0.758 | 0.639
101.33 kPa, x2 = 0.65 | 1 | – | 0.811 | 0.673
101.33 kPa, x2 = 0.7 | 1.082 | – | 0.867 | 0.71
101.33 kPa, x2 = 0.75 | 1.182 | – | 0.937 | 0.764
101.33 kPa, x2 = 0.8 | 1.326 | – | 1.044 | 0.837
101.33 kPa, x2 = 0.85 | 1.485 | – | 1.154 | 0.917
101.33 kPa, x2 = 0.9 | 1.698 | – | 1.302 | 1.023
101.33 kPa, x2 = 0.95 | 1.988 | – | 1.503 | 1.159

N#C[S-].NC(N)=[NH2+] + CC(N)=O
viscosity [mPa·s], 100 kPa
Details | 293.15 K | 298.13 K | 303.15 K | 308.15 K | 313.15 K | 318.15 K | 323.15 K
x1 = 0.2 | – | – | 16.53 | 13.36 | 10.98 | 9.17 | 7.72
x1 = 0.25 | 25.56 | 21.49 | 17.47 | 14.41 | 12.05 | 10.31 | 8.95
x1 = 0.3333 | 25.06 | 21.05 | 17.16 | 14.05 | 11.66 | 9.89 | 8.48

CCCCOC(=O)C(C)O (stereo unspecified) + CC(O)CO
101 kPa
Details | viscosity [mPa·s]
293.15 K, x1 = 0.3 | 17.35
293.15 K, x1 = 0.6996 | 6.325
303.15 K, x1 = 0.0999 | 21.45
308.15 K, x1 = 0.3999 | 6.935
323.15 K, x1 = 0.2 | 6.665
323.15 K, x1 = 0.4998 | 3.435

CCCCC(CC)COP(=O)(O)OCC(CC)CCCC (stereo unspecified) + CCC(=O)O
303.15 K, 101 kPa
Details | viscosity [mPa·s]
x1 = 0.0668 | 1.394
x1 = 0.1278 | 1.986
x1 = 0.2286 | 3.022
x1 = 0.3182 | 4.286
x1 = 0.4677 | 6.968
x1 = 0.5096 | 7.792
x1 = 0.5879 | 9.486
x1 = 0.6584 | 11.01
x1 = 0.7068 | 12.08
x1 = 0.7594 | 13.3
x1 = 0.814 | 14.5
x1 = 0.8783 | 16.08
x1 = 0.9378 | 17.59

Cc1cccc(O)c1 + CCC(=O)O
viscosity [mPa·s], 101 kPa
Details | x2 = 0.1345 | x2 = 0.2591 | x2 = 0.3747 | x2 = 0.4825 | x2 = 0.5831 | x2 = 0.6772 | x2 = 0.7654 | x2 = 0.8483 | x2 = 0.9264
298.15 K | 9.375 | 7.067 | 5.436 | 4.234 | 3.319 | 2.606 | 2.045 | 1.606 | 1.269
308.15 K | 5.793 | 4.756 | 3.908 | 3.221 | 2.608 | 2.105 | 1.658 | 1.316 | 1.088
318.15 K | 4.646 | 3.935 | 3.285 | 2.719 | 2.255 | 1.884 | 1.566 | 1.277 | 0.9609

C[N+](=O)[O-] + CCC(C)=O
298.15 K, 101 kPa
Details | viscosity [mPa·s]
x1 = 0.1563 | 0.4237
x1 = 0.2954 | 0.4466
x1 = 0.418 | 0.4694
x1 = 0.5281 | 0.4923
x1 = 0.6264 | 0.515
x1 = 0.7156 | 0.5377
x1 = 0.7963 | 0.5604
x1 = 0.8703 | 0.5834
x1 = 0.9376 | 0.6067

C[N+](=O)[O-] + CCC(C)O
viscosity [mPa·s], 101.33 kPa
Details | 293.15 K | 303.15 K | 313.15 K
x2 = 0.05 | 0.631 | 0.562 | 0.508
x2 = 0.1 | 0.639 | 0.564 | 0.504
x2 = 0.15 | 0.65 | 0.571 | 0.506
x2 = 0.2002 | 0.676 | 0.584 | 0.515
x2 = 0.25 | 0.707 | 0.605 | 0.528
x2 = 0.3 | 0.751 | 0.633 | 0.546
x2 = 0.35 | 0.805 | 0.666 | 0.574
x2 = 0.4 | 0.864 | 0.705 | 0.595
x2 = 0.45 | 0.931 | 0.751 | 0.625
x2 = 0.5 | 0.995 | 0.798 | 0.659
x2 = 0.5502 | 1.081 | 0.854 | 0.7
x2 = 0.6 | 1.169 | 0.916 | 0.743
x2 = 0.6499 | 1.275 | 0.991 | 0.796
x2 = 0.7 | 1.4 | 1.079 | 0.857
x2 = 0.75 | 1.547 | 1.187 | 0.933
x2 = 0.8 | 1.742 | 1.316 | 1.03
x2 = 0.85 | 1.995 | 1.5 | 1.14
x2 = 0.9001 | 2.341 | 1.703 | 1.283
x2 = 0.95 | 2.845 | 2.02 | 1.477

CCCCC(CC)COP(=O)(O)OCC(CC)CCCC (stereo unspecified) + CCCC(=O)O
303.15 K, 101 kPa
Details | viscosity [mPa·s]
x1 = 0.0532 | 1.784
x1 = 0.1098 | 2.592
x1 = 0.1892 | 3.578
x1 = 0.2612 | 4.602
x1 = 0.3278 | 5.698
x1 = 0.4066 | 7.172
x1 = 0.5002 | 8.886
x1 = 0.6095 | 11.21
x1 = 0.6884 | 12.9
x1 = 0.7405 | 14.01
x1 = 0.8096 | 15.38
x1 = 0.8811 | 16.81
x1 = 0.9342 | 17.79

CCCCC(CC)COP(=O)(O)OCC(CC)CCCC (stereo unspecified) + CCCCCCC
viscosity [mPa·s], 101 kPa
Details | x1 = 0.0334 | x1 = 0.0721 | x1 = 0.1175 | x1 = 0.1661 | x1 = 0.2371 | x1 = 0.3181 | x1 = 0.4202 | x1 = 0.5541 | x1 = 0.7367
303.15 K | 0.4827 | 0.6407 | 0.866 | 1.16 | 1.699 | 2.494 | 3.805 | 6.131 | 10.6
313.15 K | 0.4218 | 0.5411 | 0.7073 | 0.92 | 1.301 | 1.851 | 2.738 | 4.282 | 7.192
323.15 K | 0.3705 | 0.4589 | 0.5793 | 0.7299 | 0.9935 | 1.364 | 1.95 | 2.944 | 4.774
